Test results reported in ChEMBL document CHEMBL3217484, “N1-Benzyl substituted cambinol analogues as isozyme selective inhibitors of the sirtuin family of protein deacetylases” (Medchemcomm, 2011).

Key:
[1] = molecular target: T1, NAD-dependent protein deacetylase sirtuin-1 (Homo sapiens) (UniProt Q96EB6); test: Inhibition of human recombinant SIRT1 using fluor de Lys as substrate at 60 uM after 1 hr by fluorimeter analysis
T1 sequence (whole entry): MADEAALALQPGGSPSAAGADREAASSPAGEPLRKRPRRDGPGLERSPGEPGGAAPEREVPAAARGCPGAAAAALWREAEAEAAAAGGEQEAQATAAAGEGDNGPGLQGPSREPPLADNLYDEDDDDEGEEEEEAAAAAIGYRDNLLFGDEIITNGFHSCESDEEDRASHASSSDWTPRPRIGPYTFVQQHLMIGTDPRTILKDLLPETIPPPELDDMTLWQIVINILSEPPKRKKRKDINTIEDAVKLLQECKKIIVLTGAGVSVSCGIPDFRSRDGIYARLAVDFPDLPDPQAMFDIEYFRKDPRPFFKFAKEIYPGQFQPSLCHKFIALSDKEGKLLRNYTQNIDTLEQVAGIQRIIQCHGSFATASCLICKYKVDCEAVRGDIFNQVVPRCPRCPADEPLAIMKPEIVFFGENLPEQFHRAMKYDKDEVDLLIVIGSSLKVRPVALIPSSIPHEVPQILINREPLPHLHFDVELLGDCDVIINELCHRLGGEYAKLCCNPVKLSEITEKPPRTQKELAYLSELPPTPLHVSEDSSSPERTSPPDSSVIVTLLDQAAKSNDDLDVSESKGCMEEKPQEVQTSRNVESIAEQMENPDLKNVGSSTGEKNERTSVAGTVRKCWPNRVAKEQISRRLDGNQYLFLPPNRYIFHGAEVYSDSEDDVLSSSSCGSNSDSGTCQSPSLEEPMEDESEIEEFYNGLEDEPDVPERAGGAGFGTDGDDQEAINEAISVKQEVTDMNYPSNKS

[2] = molecular target: T2, NAD-dependent protein deacetylase sirtuin-1 (Homo sapiens, UniProt Q96EB6); test: Inhibition of human recombinant SIRT1 using fluor de Lys as substrate after 1 hr by fluorimeter analysis
T2 sequence (Q96EB6 whole entry): T1 sequence (whole entry)

[3] = molecular target: T3, NAD-dependent protein deacetylase sirtuin-2 (Homo sapiens) (UniProt Q8IXJ6); test: Inhibition of human recombinant SIRT2 using fluor de Lys as substrate at 60 uM after 1 hr by fluorimeter analysis
T3 sequence (whole entry): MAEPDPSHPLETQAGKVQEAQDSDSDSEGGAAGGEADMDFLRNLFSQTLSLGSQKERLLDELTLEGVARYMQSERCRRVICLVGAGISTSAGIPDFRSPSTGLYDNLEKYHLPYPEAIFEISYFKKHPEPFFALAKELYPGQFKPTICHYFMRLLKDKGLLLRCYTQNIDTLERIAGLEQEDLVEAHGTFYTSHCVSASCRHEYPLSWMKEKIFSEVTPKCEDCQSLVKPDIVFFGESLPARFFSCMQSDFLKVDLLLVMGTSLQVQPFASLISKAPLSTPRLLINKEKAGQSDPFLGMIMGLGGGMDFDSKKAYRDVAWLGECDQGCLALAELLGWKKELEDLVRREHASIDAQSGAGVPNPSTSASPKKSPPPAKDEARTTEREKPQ

[4] = molecular target: T4, NAD-dependent protein deacetylase sirtuin-2 (Homo sapiens, UniProt Q8IXJ6); test: Inhibition of human recombinant SIRT2 using fluor de Lys as substrate after 1 hr by fluorimeter analysis
T4 sequence (Q8IXJ6 whole entry): T3 sequence (whole entry)

H1299 = test: Inhibition of sirtuin in human H1299 cells assessed increase in alpha-tubulin acetylation at 60 uM after 24 hrs by Western blot analysis in presence of trichostatin-A relative to control; assay type: cell-based

inhibition [1] [%] | IC50 [2] [µM] | inhibition [3] [%] | IC50 [4] [µM] | SMILES | fold change (FC) (H1299)
19.3 | > 120 | 72.2 | 16 | CCOc1ccc(Cn2c(-c3ccccc3)c(Cc3c(OC)ccc4ccccc34)c(=O)[nH]c2=S)cc1 | –
– | – | 37.7 | – | COc1ccc2ccccc2c1Cc1c(-c2ccccc2)n(Cc2ccccc2)c(=S)[nH]c1=O | –
10.8 | – | 62 | – | O=c1[nH]c(=S)n(Cc2ccccc2)c(-c2ccccc2)c1Cc1c(O)ccc2ccccc12 | –
8.5 | – | 63.3 | – | CCCCOc1ccc(Cn2c(-c3ccccc3)c(Cc3ccccc3)c(=O)[nH]c2=S)cc1 | –
15.6 | > 120 | 85.4 | 6 | CCCOc1ccc(Cn2c(-c3ccccc3)c(Cc3c(O)ccc4ccccc34)c(=O)[nH]c2=S)cc1 | –
18.4 | – | 49.4 | – | CCCCn1c(-c2ccc(Cl)cc2)c(Cc2c(OC)ccc3ccccc23)c(=O)[nH]c1=S | –
23 | – | 45.1 | – | O=c1[nH]c(=S)n(Cc2ccccc2)c(-c2ccccc2)c1Cc1ccccc1 | –
25.4 | – | 48.4 | – | O=c1[nH]c(=S)n(Cc2ccccc2)c(-c2ccccc2)c1Cc1c(OCc2ccccc2)ccc2ccccc12 | –
11.5 | – | 37.3 | – | CCCCn1c(-c2ccccc2C)c(Cc2c(OC)ccc3ccccc23)c(=O)[nH]c1=S | –
8.8 | – | 66.1 | – | COc1ccc(Cn2c(-c3ccccc3)c(Cc3c(OC)ccc4ccccc34)c(=O)[nH]c2=S)cc1 | –
35 | 68.1 | 73.3 | 10 | CCOc1ccc(Cn2c(-c3ccccc3)c(Cc3ccccc3)c(=O)[nH]c2=S)cc1 | –
32.7 | – | 66.1 | – | CCCCOc1ccc(Cn2c(-c3ccccc3)c(Cc3c(OC)ccc4ccccc34)c(=O)[nH]c2=S)cc1 | –
1.8 | – | 27 | – | O=c1cc(-c2ccccc2)n(Cc2ccccc2)c(=S)[nH]1 | –
36.2 | – | 37.7 | – | COc1ccc2ccccc2c1Cc1c(-c2ccccc2)n(C)c(=S)[nH]c1=O | –
32.2 | – | 67 | – | COc1ccc(Cn2c(-c3ccccc3)c(Cc3ccccc3)c(=O)[nH]c2=S)cc1 | –
38 | 61.9 | 71.8 | 11 | CCCOc1ccc(Cn2c(-c3ccccc3)c(Cc3c(OC)ccc4ccccc34)c(=O)[nH]c2=S)cc1 | –
36.6 | – | 67.2 | – | CCOc1ccc(Cn2c(-c3ccccc3)c(Cc3c(OCc4ccccc4)ccc4ccccc34)c(=O)[nH]c2=S)cc1 | –
29.8 | – | 56.9 | – | COc1ccc(Cn2c(-c3ccccc3)c(Cc3c(OCc4ccccc4)ccc4ccccc34)c(=O)[nH]c2=S)cc1 | –
13.4 | > 120 | 88.9 | 4 | CCOc1ccc(Cn2c(-c3ccccc3)c(Cc3c(O)ccc4ccccc34)c(=O)[nH]c2=S)cc1 | 1.7
– | 58.2 | 73.4 | 12 | COc1ccc(Cn2c(-c3ccccc3)c(Cc3c(O)ccc4ccccc34)c(=O)[nH]c2=S)cc1 | –
22.8 | – | 65.1 | – | CCCOc1ccc(Cn2c(-c3ccccc3)c(Cc3c(OCc4ccccc4)ccc4ccccc34)c(=O)[nH]c2=S)cc1 | –
– | – | – | – | O=c1[nH]c(=S)[nH]c(-c2ccccc2)c1Cc1c(O)ccc2ccccc12 | 1.3
